≈ marks a conversion by molar mass, not a printed value. Where “and” joins values, the source holds several entries; their conditions need not be identical. Identical values can stand only once.
What was measured:
R. ferrugineus adults = experiment: Antifeedant/insecticidal test on adults with treated sugarcane stem (probit LC50); type: in vivo, Rhynchophorus ferrugineus; settings: Rhynchophorus ferrugineus, 24 h, after 1 day of treatment, 95% confidence limits in brackets, read-out: LC50
Method: (§1) Over the course of 40 days, an O. basilicum cell suspension was cultivated in this investigation, and then the extract was obtained. […] Long segments of sugarcane stem were employed in the insect breeding lab at King Faisal University’s Research and Training Center to raise adult R. ferrugineus larvae. For this experiment, we used a topical application technique with larvae stored at 4 °C for five minutes to test the extract’s activity. Using a hand-operated micro-applicator (Burkard Manufacturing Co., Ltd., Hertfordshire, UK, collected using a […] micro-syringe), extracts at escalating ratios (10 µL) were injected into the dorsal surface of the larvae (Ito Corp.; MS-N50, Shizuoka, Japan). Five larvae per box in a series of three replicates were fed on sugarcane stem pieces measuring 10 cm in length. The LD50 was calculated by measuring the percentage of dead larvae at 24, 48, 72, and 96 h following a topical application. The antifeedant impact was determined in adults by giving them 10 cm sugarcane stem segments cut in half longitudinally. Long strips of sugarcane stem (32 cm^2) were immersed in the previous serial extract and compound concentration (10 mL) for ten seconds before they were dried in ambient air using a plastic box. Each box included a new pair of larvae (a male and a female). Ten sets of each treatment were performed. Data on how well the subjects ate were evaluated at 24, 48, 72, and 96 h.
(§2) The tissue culture parameters were calculated quantitatively from three independent sets of samples, and the mean SD was used to describe the findings. Toxicity parameters were determined quantitatively using a 10-replicate sample, and means and standard deviations were used to present the data. The median dosage obtained from a dose–response regression was used to calculate the LC50 value. By analyzing the comparative growth rate vs. the crude extract logarithm using least squares regression, the range of LC50 was calculated with 95% confidence. A simple variance study was performed on the increased weight and enzymatic activity data (ANOVA). The distinction between the means was accomplished using the Student–Newman–Keuls (SNK) test. Additionally, SPSS version 25 was used to find p < 0.05 significant deviations from the mean.

[1] = system: fourth-instar larvae of R. ferrugineus; experiment: Topical application (contact) to fourth-instar larvae (probit LD50); type: in vivo, Rhynchophorus ferrugineus; settings: after 1 day of treatment, 95% confidence limits in brackets
Method: as §1, §2

AChE [2] = experiment: In vitro AChE inhibition, larval homogenate (Ellman); type: biochemical, Rhynchophorus ferrugineus; settings: fourth-instar larvae preparation
Method: (§3) The R. ferrugineus were homogenized larvae in a buffer (sodium phosphate, 40 mM, and pH 7.4); then, sodium chloride (10 mM dissolved in 1% (w/v) triton X-100) was added. During centrifugation (Sigma 3–30 KS), the homogenate was chilled to 4 °C and spun at a speed of 5000 rpm (20 min). The supernatant was either immediately put into action for an enzymatic test or frozen and kept at […] for later use. Each test was repeated three times. The protein content was determined using the same protocol employed by Lowry with modification using protein extract (100 µL) combined with an alkaline copper solution and a Folin–Ciocalteu phenol reagent (2 mL and 200 µL, respectively). The intensity of the resulting blue hue was evaluated during 30 min of incubation at 25 °C. Using an ELISA plate reader and a BSA standard curve, we could calculate the protein concentration by analyzing the absorbance at 600 nm (Multiskan SkyHigh Microplate Spectrophotometer, Thermo Fisher Scientific, Waltham, MA, USA).
(§4) The enzyme AChE was assessed using a substrate of acetylthiocholine iodide and evaluated using 5,5′-dithiobis [2-nitrbenzoic acid] (DTNB), according to [94]. Each well contained a sodium phosphate buffer (140 µL) (pH: 8.0; 100 mM), DTNB (10 µL), extract (20 µL)/components at 1, 10, 50, 100, and 1000 µg/mL in DMSO and underwent 15 min of incubation at 25 °C. Acetylthiocholine (ATCh) was added to start the reaction (10 µL). The ATCh enzymatic hydrolysis produced a 5-thio-2-nitrobenzoate anion as a color (yellow) that was detected by measuring its wavelength, i.e., 412 nm, thereby allowing the researchers to track the rate of ATCh hydrolysis (15 min). Each response was performed three times on a microplate and examined using an ELISA plate reader to determine the 412 nm absorbance of the combination (Multiskan SkyHigh Microplate Spectrophotometer). The AChE-specific activity was measured as OD412/mg protein.h. based on observing the effect of raising the quantities of all of these compounds during the tests on the inhibition results, and the inhibitory concentration (IC50) was calculated. Then, a computer algorithm was used to determine the IC50 values (Version 9.01 of GraphPad Prism by Inc., 2020, San Diego, CA, USA).

ACPs [3] = experiment: In vitro ACP inhibition, larval homogenate; type: biochemical, Rhynchophorus ferrugineus; settings: fourth-instar larvae preparation
Method: as §3
(§5) Activities of ACPs and ALPs were evaluated using a modified version of the Asakura technique. The ACP test required incubating 100 μL of crude enzyme in a buffer of 650 μL of sodium acetate (pH: 5.0; 50 mM with ACPs) or 250 μL of Tris–HCl (at 50 mM; pH: 8.0 with ALPs) and p-nitrophenyl phosphate (5.5 mM). For 30 min; the various mixes were kept at 37 °C for incubation. Thereafter, 500 μL of NaOH (0.5 N) stopped the reaction. Using an ELISA plate reader, we determined the mixture’s 415 nm absorbance value (Multiskan SkyHigh Microplate Spectrophotometer). The ACP- and ALP-specific activity was estimated as OD 415/mg protein·h.

ALPs [4] = experiment: In vitro ALP inhibition, larval homogenate; type: biochemical, Rhynchophorus ferrugineus; settings: for IC50 ALPs in vitro: fourth-instar larvae preparation
Method: as §3, §5

AChE [5] = experiment: In vivo AChE inhibition in treated fourth-instar larvae; parameters: species or system Rhynchophorus ferrugineus; settings: fourth-instar larvae treated 24 h
Method: as §4
(§6) Each enzyme’s in vivo impact was measured after treating larvae with an extract or pure chemicals. An inhibitor-free test combination served as a negative control. We determined the absorbance of the enzymes throughout a spectrum of wavelengths using a rapid reader for ELISA plates (Multiskan SkyHigh Microplate Spectrophotometer). Extracts and pure chemicals were used to treat R. ferrugineus larvae at previous serial concentrations, and their AChE, ACP, ALP, and GABA-T activity was tested in vivo using the methods outlined above. Larvae spent a day on leaf disks treated with chemicals or extract.

ACPs [6] = experiment: In vivo ACP inhibition in treated fourth-instar larvae; parameters: species or system Rhynchophorus ferrugineus; settings: fourth-instar larvae treated 24 h
Method: as §5, §6

ALPs [7] = experiment: In vivo ALP inhibition in treated fourth-instar larvae; parameters: species or system Rhynchophorus ferrugineus; settings: fourth-instar larvae treated 24 h
Method: as §5, §6

[8] = listed as quercetin-3-O-rutinoside

For `O=C(/C=C/c1ccc(O)c(O)c1)O[C@H](Cc1ccc(O)c(O)c1)C(=O)O` [Rosmarinic acid], the LC50 (R. ferrugineus adults) was 1430 µg/mL (≈ 3960 µM), the LD50 [1] was 11.8 (11.2–12.5) µg/Larvae and the “IC50 AChE in vitro” value (AChE [2]) was 119.2 µg/mL and 119 ± 1.14 µg/mL. The “IC50 ACPs in vitro” value (ACPs [3]) was 139.7 µg/mL (≈ 388 µM), the IC50 ALP in vitro (ALPs [4]) was 150 µg/mL (≈ 415 µM) and the “IC50 ALPs in vitro” value (ALPs [4]) was < 200 µg/mL. The “IC50 AChE in vivo” value (AChE [5]) was 235.1 µg/mL and 235 ± 1.14 µg/mL, the “IC50 ACPs in vivo” value (ACPs [6]) was < 330 µg/mL and 258.7 µg/mL and the “IC50 ALPs in vivo” value (ALPs [7]) was 256.7 µg/mL.
With `O=C(C=Cc1ccc(O)c(O)c1)OC(Cc1ccc(O)c(O)c1)C(=O)OC1OC(CO)C(O)C(O)C1O` (centres unmarked) [Rosmarinic acid glucoside] the LC50 (R. ferrugineus adults) was 1230 µg/mL (≈ 2350 µM), the LD50 ([1]; listed as Rosmarinyl glucoside) was 17.2 (15.7–18.1) µg/Larvae and the LD50 ([1]; listed as rosmarinyl glucoside) was 17.2 µg/Larvae. The “IC50 AChE in vitro” value (AChE [2]) was 89 ± 0.85 µg/mL, the “IC50 AChE in vitro” value (AChE [2]; listed as rosmarinyl glucoside) was 89.4 µg/mL and the “IC50 ACPs in vitro” value (ACPs [3]; listed as rosmarinyl glucoside) was 123.6 µg/mL (≈ 237 µM). The IC50 ALP in vitro (ALPs [4]) was 120 µg/mL (≈ 229 µM), the “IC50 ALPs in vitro” value (ALPs [4]; listed as rosmarinyl glucoside) was < 200 µg/mL and the “IC50 AChE in vivo” value (AChE [5]) was 313 ± 0.85 µg/mL. The “IC50 AChE in vivo” value (AChE [5]; listed as rosmarinyl glucoside) was 312.7 µg/mL, the “IC50 ACPs in vivo” value (ACPs [6]; listed as rosmarinyl glucoside) was 318.8 µg/mL and the “IC50 ALPs in vivo” value (ALPs [7]; listed as rosmarinyl glucoside) was 387.4 µg/mL.
With `C[C@H]1[C@H](C)CC[C@]2(C(=O)O)CC[C@]3(C)C(=CC[C@@H]4[C@@]5(C)CC[C@H](O)C(C)(C)[C@@H]5CC[C@]43C)[C@H]12` [Ursolic acid] the LC50 (R. ferrugineus adults) was 1120 µg/mL (≈ 2450 µM), the LD50 [1] was 14.9 (13.6–15.4) µg/Larvae and the LD50 ([1]; listed as ursolic acid) was 14.9 µg/Larvae. The “IC50 AChE in vitro” value (AChE [2]) was 170 ± 1.52 µg/mL, the “IC50 AChE in vitro” value (AChE [2]; listed as ursolic acid) was 169.5 µg/mL and the “IC50 ACPs in vitro” value (ACPs [3]; listed as ursolic acid) was 167.8 µg/mL (≈ 367 µM). The IC50 ALP in vitro (ALPs [4]) was 141 µg/mL (≈ 309 µM), the “IC50 ALPs in vitro” value (ALPs [4]; listed as ursolic acid) was < 200 µg/mL and the “IC50 AChE in vivo” value (AChE [5]) was 458 ± 1.52 µg/mL. The “IC50 AChE in vivo” value (AChE [5]; listed as ursolic acid) was 457.8 µg/mL, the “IC50 ACPs in vivo” value (ACPs [6]; listed as ursolic acid) was 392.4 µg/mL and the “IC50 ALPs in vivo” value (ALPs [7]; listed as ursolic acid) was 476.9 µg/mL.
With `C[C@@H]1O[C@@H](OC[C@H]2O[C@@H](Oc3c(-c4ccc(O)c(O)c4)oc4cc(O)cc(O)c4c3=O)[C@H](O)[C@@H](O)[C@@H]2O)[C@H](O)[C@H](O)[C@H]1O` [Quercetin-3-O-rutinoside] the LC50 (R. ferrugineus adults) was 1170 µg/mL (≈ 1910 µM), the LD50 [1] was 16.2 (15.3–17.2) µg/Larvae and the LD50 [1, 8] was 16.2 µg/Larvae. The “IC50 AChE in vitro” value (AChE [2]) was 98 ± 0.87 µg/mL, the “IC50 AChE in vitro” value (AChE [2]; [8]) was 98.4 µg/mL and the “IC50 ACPs in vitro” value (ACPs [3]; [8]) was 104.8 µg/mL (≈ 172 µM). For the same compound, the IC50 ALP in vitro (ALPs [4]) was 102 µg/mL (≈ 168 µM), the “IC50 ALPs in vitro” value (ALPs [4]; [8]) was < 200 µg/mL and the “IC50 AChE in vivo” value (AChE [5]) was 348 ± 0.87 µg/mL. The “IC50 AChE in vivo” value (AChE [5]; [8]) was 347.6 µg/mL and the “IC50 ACPs in vivo” value (ACPs [6]; [8]) was 298.4 µg/mL.

From paper PMC10892409, “Exploring Ocimum basilicum’s Secondary Metabolites: Inhibition and Molecular Docking against Rhynchophorus ferrugineus for Optimal Action” (Plants, 2024)
